Each structure is given as a SMILES string. Like-named read-outs stand apart in the source and are kept apart here.

The target in one test is DDR2 (Homo sapiens (Human), UniProt Q16832). Kind of test: DDR2 binding assay (LanthaScreen Europium Kinase Binding assay). The procedure: (§1) DDR1 and DDR2 binding assays were performed using Life Technologies LanthaScreen™ Europium Kinase Binding assay. The compounds were incubated with 5 nM DDR1 (Carna Biosciences) or 5 nM DDR2 (Life Technologies) for 1 h at rt in white 384-well OptiPlate (PerkinElmer), containing 20 nM or 10 nM Kinase Tracer 178 respectively and 2 nM Europium labelled anti-GST antibody (Life Technologies) in assay buffer (50 mM HEPES pH 7.5, 10 mM MgCI2, 1 mM EGTA and 0.01% BRIJ35). The ratio of fluorescence emission 665 nm/615 nm after excitation at 340 nm was obtained using the Tecan Spark 20M plate reader. IC50 values were determined in GraphPad Prism 7.0 software, using 4 parameter model: log(inhibitor) vs. response. IC50 values were converted in Ki using the Cheng-Prusoff equation (Ki=IC50/(1+[Tracer]/Kd).
Sequence of DDR2 (Q16832 22-855): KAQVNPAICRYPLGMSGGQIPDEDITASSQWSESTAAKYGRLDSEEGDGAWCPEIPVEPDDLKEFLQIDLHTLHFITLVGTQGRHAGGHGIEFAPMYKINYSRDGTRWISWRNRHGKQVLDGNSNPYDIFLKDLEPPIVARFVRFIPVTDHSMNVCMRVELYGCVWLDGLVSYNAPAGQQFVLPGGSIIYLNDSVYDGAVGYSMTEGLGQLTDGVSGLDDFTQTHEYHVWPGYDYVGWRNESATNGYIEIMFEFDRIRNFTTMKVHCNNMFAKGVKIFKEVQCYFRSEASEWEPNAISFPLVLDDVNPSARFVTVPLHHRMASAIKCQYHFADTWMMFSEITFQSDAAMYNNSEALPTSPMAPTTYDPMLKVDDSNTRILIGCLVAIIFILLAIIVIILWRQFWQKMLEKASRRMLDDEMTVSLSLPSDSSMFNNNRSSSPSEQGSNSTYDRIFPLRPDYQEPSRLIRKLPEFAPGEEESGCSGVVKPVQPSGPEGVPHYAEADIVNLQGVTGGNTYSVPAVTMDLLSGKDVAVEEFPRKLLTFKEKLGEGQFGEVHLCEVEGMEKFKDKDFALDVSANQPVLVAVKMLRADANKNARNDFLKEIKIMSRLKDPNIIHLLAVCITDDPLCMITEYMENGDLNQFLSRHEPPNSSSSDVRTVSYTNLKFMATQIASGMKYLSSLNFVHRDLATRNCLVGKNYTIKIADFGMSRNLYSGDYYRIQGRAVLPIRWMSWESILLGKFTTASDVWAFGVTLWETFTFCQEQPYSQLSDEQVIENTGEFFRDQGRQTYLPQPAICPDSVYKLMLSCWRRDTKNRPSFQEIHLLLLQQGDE
(In general: Time-resolved FRET reads energy transfer from a long-lived donor to a nearby acceptor.)

The next test concerns the target DDR1 (Homo sapiens (Human), UniProt Q08345). Put plainly: DDR1 binding assay (LanthaScreen Europium Kinase Binding assay). On the procedure:
as §1

The mark [1] stands for this setting: 5 nM DDR2, 10 nM Kinase Tracer 178, 1 h at rt, Ki from IC50 by Cheng-Prusoff, read-out: Ki DDR2.
The mark [2] stands for this setting: 5 nM DDR1, 20 nM Kinase Tracer 178, 1 h at rt, Ki from IC50 by Cheng-Prusoff, read-out: Ki DDR1.

Sequence of DDR1 (Q08345 19-913): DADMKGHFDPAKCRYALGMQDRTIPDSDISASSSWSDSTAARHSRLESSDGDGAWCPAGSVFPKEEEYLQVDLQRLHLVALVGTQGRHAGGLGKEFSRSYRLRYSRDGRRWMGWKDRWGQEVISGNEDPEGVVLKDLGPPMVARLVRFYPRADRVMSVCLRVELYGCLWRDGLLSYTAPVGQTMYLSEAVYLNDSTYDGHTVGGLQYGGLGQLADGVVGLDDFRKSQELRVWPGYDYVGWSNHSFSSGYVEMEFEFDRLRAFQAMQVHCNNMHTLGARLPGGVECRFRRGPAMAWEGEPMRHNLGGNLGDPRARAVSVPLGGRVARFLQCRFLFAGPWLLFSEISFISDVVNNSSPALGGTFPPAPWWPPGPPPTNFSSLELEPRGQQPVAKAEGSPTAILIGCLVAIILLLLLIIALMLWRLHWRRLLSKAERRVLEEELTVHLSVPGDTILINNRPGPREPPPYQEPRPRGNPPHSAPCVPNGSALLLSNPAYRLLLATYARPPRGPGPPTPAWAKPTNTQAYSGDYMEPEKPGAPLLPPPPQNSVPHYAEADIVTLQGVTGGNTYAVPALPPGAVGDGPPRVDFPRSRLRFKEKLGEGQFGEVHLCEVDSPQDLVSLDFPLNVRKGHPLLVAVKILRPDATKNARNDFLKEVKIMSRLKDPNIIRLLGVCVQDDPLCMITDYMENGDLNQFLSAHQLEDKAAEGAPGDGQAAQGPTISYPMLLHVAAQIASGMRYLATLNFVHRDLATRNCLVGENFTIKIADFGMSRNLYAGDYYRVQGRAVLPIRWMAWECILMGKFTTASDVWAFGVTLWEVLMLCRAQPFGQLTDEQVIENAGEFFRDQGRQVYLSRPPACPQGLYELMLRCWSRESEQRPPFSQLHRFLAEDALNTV

In general, Ki refers to the dissociation constant of the complex between target and ligand, obtained from inhibition or displacement. With `Cc1ccc(C(=O)Nc2cc(C(F)(F)F)ccc2Cl)cc1OC1CN(c2cnn3ccncc23)C1` [Example 160, N-(2-chloro-5-(trifluoromethyl)phenyl)-4-methyl-3-((1-(pyrazolo[1,5-a]pyrazin-3-yl)azetidin-3-yl)oxy)benzamide], the inhibition constant Ki on DDR2 (setting [1]) was 5 to 25 nM; at DDR1 (setting [2]) it was under 5 nM.

`CNc1ccn2ncc(N3CC(Oc4cc(C(=O)Nc5cncc(C(F)(F)F)c5)ccc4C)C3)c2n1` [Example 141, 4-methyl-3-((1-(5-(methylamino)pyrazolo[1,5-a]pyrimidin-3-yl)azetidin-3-yl)oxy)-N-(5-(trifluoromethyl)pyridin-3-yl)benzamide]: the Ki on DDR2 (setting [1]) was 5 to 25 nM; at DDR1 (setting [2]), under 5 nM.

Take `Cc1ccc(C(=O)Nc2cncc(C(F)(F)F)c2)cc1CC1CN(c2cnn3ccncc23)C1` [Example 171, 4-methyl-3-((1-(pyrazolo[1,5-a]pyrazin-3-yl)azetidin-3-yl)methyl)-N-(5-(trifluoromethyl)pyridin-3-yl)benzamide]: the Ki at DDR2 (setting [1]) and at DDR1 (setting [2]) was under 5 nM each time.

Consider `Cc1ccc(C(=O)Nc2cncc(C(F)(F)F)c2)cc1OC1CN(c2cnn3ccncc23)C1` [Example 136, 4-methyl-3-((1-(pyrazolo[1,5-a]pyrazin-3-yl)azetidin-3-yl)oxy)-N-(5-(trifluoromethyl)pyridin-3-yl)benzamide], for which the inhibition constant Ki on DDR2 (setting [1]) and on DDR1 (setting [2]) was under 5 nM in each case.

`Cc1ccc(C(=O)Nc2cncc(C(F)(F)F)c2)cc1NC1CN(c2cnn3cccnc23)C1` [Example 148, 4-methyl-3-((1-(pyrazolo[1,5-a]pyrimidin-3-yl)azetidin-3-yl)amino)-N-(5-(trifluoromethyl)pyridin-3-yl)benzamide]: the inhibition constant Ki on DDR2 (setting [1]) and at DDR1 (setting [2]) was 5 to 25 nM throughout.

Consider `Cc1ccc(C(=O)Nc2cncc(C(F)(F)F)c2)cc1NC1CN(C(=O)c2cnn3ccncc23)C1` [Compound C1, 4-methyl-3-((1-(pyrazolo[1,5-a]pyrazine-3-carbonyl)azetidin-3-yl)amino)-N-(5-(trifluoromethyl)pyridin-3-yl)benzamide, reference compound], for which the inhibitory constant (Ki) was determined as 311 nM on DDR2 (same binding assay, numeric values, read-out: DDR2 Ki) and 114 nM on DDR1 (same binding assay, numeric values, read-out: DDR1 Ki).

As to `Cc1ccc(C(=O)Nc2cncc(C(F)(F)F)c2)cc1C(C)C1CN(c2cnn3ccncc23)C1` (stereo not shown) [Example 172, 4-methyl-3-(1-(1-(pyrazolo[1,5-a]pyrazin-3-yl)azetidin-3-yl)ethyl)-N-(5-(trifluoromethyl)pyridin-3-yl)benzamide], the inhibition constant Ki is 5 to 25 nM at DDR2 (setting [1]) and under 5 nM on DDR1 (setting [2]).

As for `Cc1ccc(C(=O)Nc2cc(F)cc(C(F)(F)F)c2)cc1OC1CN(c2cnn3ccncc23)C1` [Example 162, N-(3-fluoro-5-(trifluoromethyl)phenyl)-4-methyl-3-((1-(pyrazolo[1,5-a]pyrazin-3-yl)azetidin-3-yl)oxy)benzamide], the Ki on DDR2 (setting [1]) and at DDR1 (setting [2]) was under 5 nM throughout.

On to `Cc1ccc(C(=O)Nc2cc(C(C)(C)C)on2)cc1OC1CN(c2cnn3ccncc23)C1` [Example 155, N-(5-(tert-butyl)isoxazol-3-yl)-4-methyl-3-((1-(pyrazolo[1,5-a]pyrazin-3-yl)azetidin-3-yl)oxy)benzamide], for which the inhibitory constant (Ki) at DDR2 (setting [1]) and on DDR1 (setting [2]) was under 5 nM in each case.

Take `Cc1ccc(C(=O)Nc2cncc(C(F)(F)F)c2)cc1C(C)C1CN(c2cnn3ccncc23)C1` (stereo not shown) [Example 175, 4-methyl-3-(1-(1-(pyrazolo[1,5-a]pyrazin-3-yl)azetidin-3-yl)ethyl)-N-(5-(trifluoromethyl)pyridin-3-yl)benzamide]: the inhibition constant Ki on DDR2 (setting [1]) was 5 to 25 nM.

On to `Cc1ccc(C(=O)Nc2cc(C(C)(C)C)n(C)n2)cc1OC1CN(c2cnn3ccncc23)C1` [Example 154, N-(5-(tert-butyl)-1-methyl-1H-pyrazol-3-yl)-4-methyl-3-((1-(pyrazolo[1,5-a]pyrazin-3-yl)azetidin-3-yl)oxy)benzamide], for which the Ki on DDR2 (setting [1]) and on DDR1 (setting [2]) was under 5 nM each time.

Turning to `Cc1ccc(C(=O)Nc2cncc(C(F)(F)F)c2)cc1NC1CN(c2cnc3cnccn23)C1` [Example 147, 3-((1-(imidazo[1,2-a]pyrazin-3-yl)azetidin-3-yl)amino)-4-methyl-N-(5-(trifluoromethyl)pyridin-3-yl)benzamide], the inhibition constant (Ki) at DDR2 (setting [1]) and on DDR1 (setting [2]) was under 5 nM each time.

Regarding `Cc1ccc(C(=O)Nc2cncc(OC(F)(F)F)c2)cc1OC1CN(c2cnn3ccncc23)C1` [Example 157, 4-methyl-3-((1-(pyrazolo[1,5-a]pyrazin-3-yl)azetidin-3-yl)oxy)-N-(5-(trifluoromethoxy)pyridin-3-yl)benzamide], the inhibition constant Ki at DDR2 (setting [1]) and at DDR1 (setting [2]) was under 5 nM throughout.

Regarding `Cc1ccn2ncc(N3CC(Oc4cc(C(=O)Nc5cncc(C(F)(F)F)c5)ccc4C)C3)c2n1` [Example 167, 4-methyl-3-((1-(5-methylpyrazolo[1,5-a]pyrimidin-3-yl)azetidin-3-yl)oxy)-N-(5-(trifluoromethyl)pyridin-3-yl)benzamide], the results for the inhibition constant (Ki) on DDR2 (setting [1]) and at DDR1 (setting [2]) were 5 to 25 nM and under 5 nM, respectively.

`Cc1ccc(C(=O)Nc2cncc(C(F)(F)F)c2)cc1S(=O)(=O)C1CN(c2cnn3ccncc23)C1` [Example 179, 4-methyl-3-((1-(pyrazolo[1,5-a]pyrazin-3-yl)azetidin-3-yl)sulfonyl)-N-(5-(trifluoromethyl)pyridin-3-yl)benzamide]: the inhibition constant Ki lay in the range of 25 to 100 nM on DDR2 (setting [1]) and 5 to 25 nM at DDR1 (setting [2]).

As to `Cc1ccc(C(=O)Nc2cncc(C(F)(F)F)c2)cc1C1CN(c2cnn3ccncc23)C1` [Example 184, 4-methyl-3-(1-(pyrazolo[1,5-a]pyrazin-3-yl)azetidin-3-yl)-N-(5-(trifluoromethyl)pyridin-3-yl)benzamide], the figures for the Ki at DDR2 (setting [1]) and at DDR1 (setting [2]) were 5 to 25 nM and under 5 nM, respectively.

Take `Cc1ccc(C(=O)Nc2cccc(CC(F)(F)F)c2)cc1OC1CN(c2cnn3ccncc23)C1` [Example 164, 4-methyl-3-((1-(pyrazolo[1,5-a]pyrazin-3-yl)azetidin-3-yl)oxy)-N-(3-(2,2,2-trifluoroethyl)phenyl)benzamide]: the Ki on DDR2 (setting [1]) and at DDR1 (setting [2]) was under 5 nM throughout.

Take `Cc1ccc(C(=O)Nc2cncc(C(F)(F)F)c2)cc1C(C)C1CN(c2cnn3ccncc23)C1` (stereo not shown) [Example 176, 4-methyl-3-(1-(1-(pyrazolo[1,5-a]pyrazin-3-yl)azetidin-3-yl)ethyl)-N-(5-(trifluoromethyl)pyridin-3-yl)benzamide]: on DDR2 (setting [1]), the inhibitory constant (Ki) is 5 to 25 nM.

For `Cc1ccc(C(=O)Nc2cncc(C(F)(F)F)c2)cc1NC1CN(c2cncnc2)C1` [Example 134, 4-methyl-3-((1-(pyrimidin-5-yl)azetidin-3-yl)amino)-N-(5-(trifluoromethyl)pyridin-3-yl)benzamide], the inhibitory constant (Ki) on DDR2 (setting [1]) is 25 to 100 nM; on DDR1 (setting [2]) it was 5 to 25 nM.

Turning to `O=C(Nc1cncc(C(F)(F)F)c1)c1ccc(OC(F)F)c(NC2CN(c3cnn4ccncc34)C2)c1` [Example 181, 4-(difluoromethoxy)-3-((1-(pyrazolo[1,5-a]pyrazin-3-yl)azetidin-3-yl)amino)-N-(5-(trifluoromethyl)pyridin-3-yl)benzamide], the values for the inhibition constant (Ki) on DDR2 (setting [1]) and at DDR1 (setting [2]) were 5 to 25 nM and under 5 nM, respectively.

As to `Cc1ccc(C(=O)Nc2cc(C(C)(C)C)n(C)n2)cc1NC1CN(c2cnn3ccncc23)C1` [Example 156, N-(5-(tert-butyl)-1-methyl-1H-pyrazol-3-yl)-4-methyl-3-((1-(pyrazolo[1,5-a]pyrazin-3-yl)azetidin-3-yl)amino)benzamide], the inhibitory constant (Ki) at DDR2 (setting [1]) is 5 to 25 nM; at DDR1 (setting [2]), under 5 nM.

In the case of `Cc1ccc(C(=O)Nc2cncc(C(F)(F)F)c2)cc1OC1CN(c2cnn3ccc(N4CCOCC4)nc23)C1` [Example 170, 4-methyl-3-((1-(5-morpholinopyrazolo[1,5-a]pyrimidin-3-yl)azetidin-3-yl)oxy)-N-(5-(trifluoromethyl)pyridin-3-yl)benzamide], the figures for the Ki at DDR2 (setting [1]) and on DDR1 (setting [2]) were 5 to 25 nM and under 5 nM, respectively.

Regarding `Cc1ccc(C(=O)Nc2cc(C(C)(C)C)on2)cc1NC1CN(c2cnn3ccncc23)C1` [Example 150, N-(5-(tert-butyl)isoxazol-3-yl)-4-methyl-3-((1-(pyrazolo[1,5-a]pyrazin-3-yl)azetidin-3-yl)amino)benzamide], the Ki on DDR2 (setting [1]) fell in the range of 25 to 100 nM; at DDR1 (setting [2]), 5 to 25 nM.

Take `Cc1ccc(C(=O)Nc2cncc(C(F)(F)F)c2)cc1NC1CN(c2cnn3ccncc23)C1` [Example 140, 4-methyl-3-((1-(pyrazolo[1,5-a]pyrazin-3-yl)azetidin-3-yl)amino)-N-(5-(trifluoromethyl)pyridin-3-yl)benzamide]: the inhibition constant (Ki) was 5 to 25 nM at DDR2 (setting [1]) and under 5 nM on DDR1 (setting [2]).

With `CC(=O)Nc1ccn2ncc(N3CC(Oc4cc(C(=O)Nc5cncc(C(F)(F)F)c5)ccc4C)C3)c2n1` [Example 138, 3-((1-(5-acetamidopyrazolo[1,5-a]pyrimidin-3-yl)azetidin-3-yl)oxy)-4-methyl-N-(5-(trifluoromethyl)pyridin-3-yl)benzamide], the Ki on DDR2 (setting [1]) was 5 to 25 nM; at DDR1 (setting [2]), under 5 nM.

With `Cc1ccc(C(=O)Nc2cncc(C(F)(F)F)c2)cc1OC1CN(c2cncc(C(N)=O)c2)C1` [Example 139, 5-(3-(2-methyl-5-((5-(trifluoromethyl)pyridin-3-yl)carbamoyl)phenoxy)azetidin-1-yl)nicotinamide], the inhibition constant Ki on DDR2 (setting [1]) is 5 to 25 nM.

The values above are taken from patent US20260028328A1, “HETEROARYL DERIVATIVES AS DDRs INHIBITORS” (CHIESI FARMACEUTICI S.P.A., priority 2022, published 2026).
